The results in this text go back to patent US7319110B2, “1H-1,2,4-triazole-3-carboxamide derivatives having cannabinoid-CB1 receptor agonistic, partial agonistic, inverse agonistic or antagonistic activity” (Solvay Pharmaceuticals B.V., priority 2002, dated 2008).

As for `Cl.O=C(NN1CCCCC1)c1nc(-c2ccc(Cl)cc2)n(-c2ccc(Cl)cc2Cl)n1`, the melting point is 238 to 240 °C (dec.).
Consider `Cl.O=C(NN1CCOCC1)c1nc(-c2ccc(Cl)cc2Cl)n(-c2ccc(Cl)cc2)n1`, for which the melting point is 224 to 226 °C.
The compound `O=C(NN1CCCCC1)c1nc(-c2ccccn2)n(-c2ccc(Cl)cc2Cl)n1` displayed a melting point of 191 to 193 °C.
Compound `O=C(NN1CCCCC1)c1nc(-c2ccc(Cl)cc2Cl)n(-c2ccc(C(F)(F)F)cc2)n1` gave a melting point of 159 to 161 °C.
In the case of `O=C(NN1CCCCC1)c1nc(-c2cccnc2)n(-c2ccc(Cl)cc2Cl)n1` it was 219 °C.
In the case of `CC(C)(C)ONC(=O)c1nc(-c2ccc(Cl)cc2)n(-c2ccc(Cl)cc2Cl)n1` it was 150 to 152 °C; in that of `O=C(NN1CCOCC1)c1nc(-c2ccc(Cl)cc2)n(-c2ccc(Cl)cc2Cl)n1`, 184 to 186 °C.
As for `Cl.O=C(NN1CCCC1)c1nc(-c2ccc(Cl)cc2Cl)n(-c2ccc(Cl)cc2)n1`, the figure is 234 to 236 °C (dec.); as for `Cl.O=C(NN1CCCC1)c1nc(-c2ccc(Cl)cc2)n(-c2ccc(Cl)cc2Cl)n1` [Example 2, 5-(4-Chlorophenyl)-1-(2,4-dichlorophenyl)-N-(pyrrolidin-1-yl)-1H-1,2,4-triazole-3-carboxamide hydrochloride], 248 to 255 °C (dec.).
With `O=C(NC1CCCCC1)c1nc(-c2ccc(Cl)cc2)n(-c2ccc(Cl)cc2Cl)n1` [Example 3, 5-(4-Chlorophenyl)-N-cyclohexyl-1-(2,4-dichlorophenyl)-1H-1,2,4-triazole-3-carboxamide], the melting point was in the range of 186 to 188 °C.
